53 compounds from the Deep4Chem optical property database can be followed below.

This data set in a line: photoluminescence quantum yield (fraction); solvent given as SMILES.
The mark [1] stands for this setting: in O=P(c1ccccc1)(c1ccccc1)c1ccccc1Oc1ccccc1P(=O)(c1ccccc1)c1ccccc1.
Setting [2] is: in c1cc(-c2cccc(-n3c4ccccc4c4ccccc43)c2)cc(-n2c3ccccc3c3ccccc32)c1.
The mark [3] stands for this setting: in c1ccc2c(c1)c1ccccc1n2-c1ccc(-c2ccc(-n3c4ccccc4c4ccccc43)cc2)cc1.

“And” between values parts separate entries of the source, which are not always exact repeats. Identical values can stand only once.

For `Cc1ccc(C2=Cc3c4ccccc4c4ccccc4[n+]3[B-](F)(F)O2)cc1`, the photoluminescence quantum yield (in ClC(Cl)Cl) is 0.275.
For the setting “in CC#N”, `Oc1ccc2ccccc2c1/C=N/c1cc2ccccc2cc1/N=C/c1c(O)ccc2ccccc12` registered a photoluminescence quantum yield of 0.042.
Regarding `CC1=c2ccccc2=[N+]2C1=Cc1c3ccccc3c(-c3[nH]c4ccccc4c3C)n1[B-]2(F)F`, the photoluminescence quantum yield (in ClCCl) was 0.08.
Take `CCOC(=O)/C=C/C1=C(c2ccc(C)cc2)C2=Nc3c(-c4ccc(C)cc4)cc(-c4ccc(C)cc4)n3[B-](F)(F)[N+]2=C1c1ccc(C)cc1`: where the note is “in ClC(Cl)Cl”, the photoluminescence quantum yield was determined as 0.24.
Take `COc1ccc(C2=C3C=c4c(oc5cc6c(cc45)[C@H]4CC[C@]5(C)C(=O)CC[C@H]5[C@@H]4CC6)=[N+]3[B-](F)(F)n3c2cc2c4cc5c(cc4oc23)CC[C@@H]2[C@@H]5CC[C@]3(C)C(=O)CC[C@@H]23)cc1`: the photoluminescence quantum yield came out at 0.61 (in CCOC(C)=O), 0.88 (in CCOCC) and 0.52 (in CO).
Take `c1ccc2cc(-n3cnc4ccccc43)ccc2c1`: the photoluminescence quantum yield runs as follows: (in C1CCCCC1) 0.23; (in CCOC(C)=O) 0.18; (in CO) 0.16.
For the setting “in CO”, `CC1(C)C(/C=C/C2=C(Oc3ccc(CCN=C=S)cc3I)C(=C/C=C3/N(CCCS(=O)(=O)[O-])c4ccccc4C3(C)C)/CCC2)=[N+](CCCS(=O)(=O)[O-])c2ccccc21` returned a photoluminescence quantum yield of 0.15.
Regarding `Fc1ccc2cc3cccc[n+]3cc2c1`, for the setting “in O”, the photoluminescence quantum yield was 0.34.
The compound `O=c1oc2ccc3ccc(O)cc3c2nc1-c1ccccc1` returned a photoluminescence quantum yield (in c1ccccc1) of 0.606.
`CCN(CC)c1ccc2c(c1)oc(=O)c1cc3c(-c4ccccc4)nn(-c4ccccc4)c3nc12` showed a photoluminescence quantum yield (in C1CCCCC1) of 0.31; a photoluminescence quantum yield (in CCOC(C)=O) of 0.195; a photoluminescence quantum yield (in CN(C)C=O) of 0.013; a photoluminescence quantum yield (in CO) of 0.002; a photoluminescence quantum yield (in ClCCl) of 0.24.
With `Cc1cc(C)n2c1C=C1c3ccccc3C(c3cccn3C)=[N+]1[B-]2(F)F`, the photoluminescence quantum yield is, setting by setting: (in C1CCOC1) 0.96; (in CC#N) 0.97; (in CCCCCC) 0.96; (in CO) 0.98; (in Cc1ccccc1) 0.94; (in ClCCl) 0.99.
`CNc1ccc2c(c1)C(=O)c1ccccc1-2`: the photoluminescence quantum yield by setting is: (in C1CCCCC1) 0.0073; (in c1ccccc1) 0.001.
For `CC1(C)c2ccccc2N(c2ccc(-c3nnc(-c4ccc(N5c6ccccc6C(C)(C)c6ccccc65)cc4)o3)cc2)c2ccccc21`, under setting [1], the photoluminescence quantum yield was 0.62.
The compound `Cc1cc(C#N)ccc1N1c2ccccc2C(c2ccccc2)(c2ccccc2)c2ccccc21` returned a photoluminescence quantum yield (in Cc1ccccc1) of 0.12.
As for `CCn1c2ccccc2c2cc(-c3cc(-c4ccc5c(c4)c4ccccc4n5CC)ncn3)ccc21`, the photoluminescence quantum yield was 0.44 (in C1CCOC1); 0.8 (in CCOC(C)=O); 0.76 (in CN(C)C=O); 0.73 (in Cc1ccccc1); 0.75 (in ClCCl).
For the compound `CCC1(CC)c2cc(N(C)C)ccc2-c2ccc(C(F)(F)F)cc21`, the photoluminescence quantum yield runs as follows: (in C1CCCCC1) 0.67; (in CC#N) 0.04; (in CCO) 0.58; (in CCOCC) 0.63; (in CS(C)=O) 0.53; (in ClCCl) 0.44. For the setting “in c1ccccc1”, this compound showed a photoluminescence quantum yield of 0.59.
With `O=C(c1ccncc1)c1ccc(-n2c3ccc(-n4c5ccccc5c5ccccc54)cc3c3cc(-n4c5ccccc5c5ccccc54)ccc32)cc1`, the photoluminescence quantum yield by setting is: (in Cc1ccccc1) 0.243; under setting [2], 0.96.
Compound `CC(C)[Si](C#Cc1c2nc3c(nc2c(C#C[Si](C(C)C)(C(C)C)C(C)C)c2nc4ccccc4nc12)C1c2ccccc2C3c2ccccc21)(C(C)C)C(C)C` came in with a photoluminescence quantum yield (in CCCCCC) of 0.21.
With `CC1(C)c2ccccc2N(c2ccc3c(c2)-c2cc(N4c5ccccc5C(C)(C)c5ccccc54)ccc2P3(=O)c2ccccc2)c2ccccc21`, the photoluminescence quantum yield is, setting by setting: (in Cc1ccccc1) 0.55; under setting [3], 0.56.
In the case of `CCCCC1(c2ccc(OC)cc2)Nc2ccccc2N=C1c1ccc(OC)cc1` (centres undefined), the photoluminescence quantum yield (in ClC(Cl)Cl) is 0.52.
Compound `Cc1cc2nc3[nH]c(=O)[nH]c(=O)c3nc2cc1C` had a photoluminescence quantum yield (in CC#N) of 0.028.
As to `O=C([O-])c1cc2c(ccc3ccccc32)oc1=O`, the photoluminescence quantum yield (in O) amounted to 0.24.
Turning to `c1ccc(-c2cc(-c3ccccc3)[o+]c(-c3ccccc3)c2)cc1`, the photoluminescence quantum yield is 0.4 (in CC#N) and 0.28 (in ClCCCl).
Regarding `F[Si](c1ccccc1)(c1ccccc1)c1cc2ccccc2c2ccccc12`, the photoluminescence quantum yield (in C1CCOC1) worked out at 0.11.
For `CN(C)c1cccc2c1C(=O)c1ccccc1-2`, the photoluminescence quantum yield came out at 0.0016 (in C1CCCCC1), 0.0027 (in CC#N), 0.004 (in CCO) and 0.0024 (in c1ccccc1).
In turn, `CCCCCCN(CCCCCC)c1ccc(C#Cc2ccc(/C=C/c3ccc(-c4ccc(/C=C/c5ccc(C#Cc6ccc(N(CCCCCC)CCCCCC)cc6)cc5)cc4)cc3)cc2)cc1` showed a photoluminescence quantum yield (in Cc1ccccc1) of 0.8.
Consider `O=[N+]([O-])c1ccc(/C=C/c2cn(S(=O)(=O)c3ccccc3)c3ccccc23)cc1`, for which the photoluminescence quantum yield reads like this: (in CC#N) 0.066; (in CCCCCCC) 0.004; (in CO) 0.002; (in O) 0.003.
On to `Nc1n[n+]([O-])c2cc(F)ccc2[n+]1[O-]`, for which the photoluminescence quantum yield worked out at 0.0077 (in CC#N) and 0.003 (in O).
Regarding `CC1(C)OB(c2ccc3ccc4cccc5ccc2c3c45)OC1(C)C`, where the note is “in Cc1ccccc1”, the photoluminescence quantum yield was 0.81.
Compound `Cc1ccccc1[B-]1(c2ccccc2C)n2nc(C(F)(F)F)cc2-c2c3ccccc3cc[n+]21` registered a photoluminescence quantum yield (in C1CCCCC1) of 0.0285, a photoluminescence quantum yield (in Cc1ccccc1) of 0.0259 and a photoluminescence quantum yield (in ClCCl) of 0.0197.
For `C(=C\c1cc2ccccc2c2ccccc12)/c1cc2ccccc2c2ccccc12`, the photoluminescence quantum yield (in C1CCOC1) was found to be 0.6.
In turn, `COC(=O)c1ccc(C(=O)NC(C)(C)C)c2c1ccc1c3ccccc3c3ccccc3c12` came in with a photoluminescence quantum yield (in ClCCl) of 0.08.
Take `CCn1ncc2c3c(C#N)c4c5ccccc5n(C)c4nc3ccc21`: the photoluminescence quantum yield (in CCOC(C)=O) was found to be 0.56.
Compound `c1ccc2cc(-c3c4ccccc4c(-c4nccc5ccccc45)c4ccccc34)ccc2c1` yielded a photoluminescence quantum yield (in ClCCl) of 0.57.
For `COc1c(-c2c(OC)c3cccc4ccc5oc(=O)cc2c5c43)c2cc(=O)oc3ccc4cccc1c4c32`, for the setting “in CC1CCCO1”, the photoluminescence quantum yield came out at 0.35.
Compound `O=C(c1ccc(N2c3ccccc3Sc3ccccc32)cc1)c1ccc2sc3ccccc3c2c1` gave a photoluminescence quantum yield (in C1CCOC1) of 0.005 and a photoluminescence quantum yield under setting [3] of 0.768.
For `CCCC1=Cc2nc1ccc1[nH]c(cc1CCC)c1nc(c(OC(=O)CCCC(=O)OC(C)(C)C)cc3[nH]c2cc3CCC)C(CCC)=C1`, where the note is “in Cc1ccccc1”, the photoluminescence quantum yield amounted to 0.21.
The compound `CC1(C)c2ccccc2N(c2ccc3c(c2)Oc2ccccc2P3(=O)c2ccccc2)c2ccccc21` (centres undefined) showed a photoluminescence quantum yield (in Cc1ccccc1) of 0.37 and a photoluminescence quantum yield under setting [1] of 0.62.
Under “in O”, `Nc1cc([NH3+])cc(-c2nc3ccccc3s2)c1` came in with a photoluminescence quantum yield of 0.064.
Take `Cc1c2ccc(=[N+]3CCCCC3)cc-2oc2cc(N3CCCCC3)ccc12`: the photoluminescence quantum yield (in ClCCl) came out at 0.91.
Still for that read-out and setting: the result for `CC(C)(C)c1ccc(C#Cc2cc3ccc4cc(C#Cc5ccc(C(C)(C)C)cc5)cc5ccc(c2)c3c45)cc1` reads 0.14.
In turn, `[NH3+]c1cc([NH3+])cc(-c2nc3ccccc3s2)c1` yielded a photoluminescence quantum yield (in O) of 0.011.
With `N#Cc1c(-n2nnc3ccc(Cl)cc32)n([C@H]2C[C@H](O)[C@@H](CO)O2)c2ncnc(N)c12`, the photoluminescence quantum yield (in CO) worked out at 0.008.
Under “in ClCCl”, `COCCOCCOCN1C(=O)c2ccc3c(-c4ccccc4)c4c5ccc6c7c(ccc(c(-c8ccccc8)c4c4ccc(c2c34)C1=O)c75)C(=O)N(COCCOCCOC)C6=O` yielded a photoluminescence quantum yield of 0.05.
The compound `CC(C)(C)c1ccc2c(c1)c1cc(C(C)(C)C)ccc1n2-c1cc(C(=O)c2ccccc2)cc(-n2c3ccc(C(C)(C)C)cc3c3cc(C(C)(C)C)ccc32)c1` had a photoluminescence quantum yield (in Cc1ccccc1) of 0.073 and a photoluminescence quantum yield under setting [2] of 0.75.
As for `Oc1cccc2c(C3(O)C4CC5CC(C4)CC3C5)cccc12` (centres undefined), under “in CC#N”, the photoluminescence quantum yield worked out at 0.33.
The compound `Cc1ccc(C)cc1` registered a photoluminescence quantum yield (in C1CCCCC1) of 0.39.
For `CC1=CC(C)=[N+]2C1=C(C1=C3C(C)=CC(C)=[N+]3[B-](F)(F)n3c(C)cc(C)c31)c1c(C)cc(C)n1[B-]2(F)F`, the photoluminescence quantum yield (in ClC(Cl)Cl) was 0.31.
As to `Cc1cc2nc3c(=O)n(C)c(=O)nc-3n(C)c2cc1C`, the photoluminescence quantum yield (in CC#N) was 0.17 and 0.47.
Consider `N#Cc1cc(-c2ccc(N3c4ccccc4Oc4ccccc43)cc2)c(-c2ccc(N3c4ccccc4Oc4ccccc43)cc2)cc1C#N`, for which the photoluminescence quantum yield (in Cc1ccccc1) came to 0.42 and the photoluminescence quantum yield under setting [2] is 0.77.
Compound `c1ccc2c(c1)-c1ccccc1[Si]21c2ccccc2-c2cc3c(cc21)-c1ccccc1[Si]31c2ccccc2-c2ccccc21` returned a photoluminescence quantum yield (in ClCCl) of 0.59.
With `Oc1ccccc1-c1nc2c3cccnc3c3ncccc3c2n1-c1ccccc1`, the photoluminescence quantum yield (in Cc1ccccc1) was determined as 0.001.
Regarding `CN(C)c1ccc(/C=C/c2nc3ccccc3o2)cc1`, the photoluminescence quantum yield runs as follows: (in C1CCCCC1) 0.005; (in CO) 0.007.
